Assays:
NHE3 [1] = target: T1, NHE3 (Homo sapiens, UniProt P48764); assay: Cell-based assay of NHE-3 activity (pre-incubation inhibition), human; conditions: human Preincubation; for IC50 / pIC50: 0-30 μM test compound
T1 construct: expressed in transfected cells
T1 sequence (P48764 26-834): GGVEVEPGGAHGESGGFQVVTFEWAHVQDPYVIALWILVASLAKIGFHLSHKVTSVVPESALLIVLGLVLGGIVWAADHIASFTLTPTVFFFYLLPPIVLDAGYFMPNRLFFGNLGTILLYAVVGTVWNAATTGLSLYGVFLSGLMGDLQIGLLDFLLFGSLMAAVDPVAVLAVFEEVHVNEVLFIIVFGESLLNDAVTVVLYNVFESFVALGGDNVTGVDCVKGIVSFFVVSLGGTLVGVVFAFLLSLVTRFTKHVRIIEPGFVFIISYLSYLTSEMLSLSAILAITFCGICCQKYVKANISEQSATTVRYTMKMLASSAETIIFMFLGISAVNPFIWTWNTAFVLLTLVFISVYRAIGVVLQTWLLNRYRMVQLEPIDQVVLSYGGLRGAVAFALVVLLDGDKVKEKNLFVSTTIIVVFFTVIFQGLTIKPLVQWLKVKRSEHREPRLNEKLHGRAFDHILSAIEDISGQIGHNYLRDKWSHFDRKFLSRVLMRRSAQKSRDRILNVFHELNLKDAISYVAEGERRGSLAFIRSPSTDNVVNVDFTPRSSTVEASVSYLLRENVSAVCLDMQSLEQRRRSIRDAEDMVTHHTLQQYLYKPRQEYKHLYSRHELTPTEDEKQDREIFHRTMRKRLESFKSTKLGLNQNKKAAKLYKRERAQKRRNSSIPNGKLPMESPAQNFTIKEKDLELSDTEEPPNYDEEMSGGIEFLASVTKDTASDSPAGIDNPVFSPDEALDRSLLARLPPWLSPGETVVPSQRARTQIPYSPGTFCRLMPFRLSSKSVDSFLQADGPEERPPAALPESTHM
T1 sequence (Q99653 2-195 partner limits assumed): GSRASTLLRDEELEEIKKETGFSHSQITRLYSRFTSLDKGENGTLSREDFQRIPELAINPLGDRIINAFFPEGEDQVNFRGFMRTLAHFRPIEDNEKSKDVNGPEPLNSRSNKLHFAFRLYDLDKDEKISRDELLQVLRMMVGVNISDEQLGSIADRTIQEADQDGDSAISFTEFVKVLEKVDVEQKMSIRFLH
How it was run: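 Activity read as initial rate of BCECF fluorescence ratio change per minute (ex 439/505, em 538 nm) following NH4Cl prepulse acid loading. Compound (0–30 μM) present during 10 min Na+-free acidification at room temperature; cells were PS120 fibroblasts stably co-expressing human NHE3 and NHERF2.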

NHE3 [2] = target: T1, NHE3; assay: Cell-based assay of NHE-3 activity (persistent inhibition), human; conditions: human Persistence, 60 min incubation then washout
How it was run: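 Persistent inhibition: compound (0-30 μM, 60 min, RT, NaCl-HEPES pH 7.4) removed before assay. Human NHE3/NHERF2 PS120 cells were then BCECF-loaded during NH4Cl pulse (30 min, 37 °C), acidified in Na+-free buffer, and Na+ added 10 min after washout; antiport measured as initial fluorescence-ratio change per minute.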

| SMILES | % inhibition (NHE3 [1]) | IC50 (NHE3 [1]) [nM] | % inhibition (NHE3 [2]) | pIC50 (NHE3 [2]) | pIC50 (NHE3 [1]) | IC50 (NHE3 [2]) [nM] |
| --- | --- | --- | --- | --- | --- | --- |
| Cc1cc(S(=O)(=O)NCCOCCOCCNC(=O)NCCCCNC(=O)NCCOCCOCCNS(=O)(=O)c2ccc(O[C@H]3c4cc(Cl)cc(Cl)c4C[C@@H]3N3CCN(C)CC3)c(C)c2)ccc1O[C@H]1c2cc(Cl)cc(Cl)c2C[C@@H]1N1CCN(C)CC1 [Example 73] | C (>70%) | 100 to 1000 | B (40-70%) | A (NHE3 pIC50 < 6) | – | – |
| Cc1cc(Cl)cc2c1C[C@H](N(C)C)[C@H]2Oc1ccc(S(=O)(=O)NCCOCCOCCNC(=O)NCCCCNC(=O)NCCOCCOCCNS(=O)(=O)c2ccc(O[C@H]3c4cc(Cl)cc(C)c4C[C@@H]3N(C)C)cc2)cc1 [Example 11] | C (>70%) | – | C (>70%) | C (NHE3 pIC50 > 7) | C (NHE3 pIC50 > 7) | – |
| Cc1cc(S(=O)(=O)NCCOCCOCCNC(=O)NCCCCNC(=O)NCCOCCOCCNS(=O)(=O)c2cc(C)c(O[C@H]3c4cc(Cl)cc(Cl)c4C[C@@H]3N(C)C)cc2F)c(F)cc1O[C@H]1c2cc(Cl)cc(Cl)c2C[C@@H]1N(C)C [Example 90, 3-[2-(2-[2-[(4-[[(1S,2S)-4,6-Dichloro-2-(dimethylamino)-2,3-dihydro-1H-inden-1-yl]oxy]-2-fluoro-5-methylbenzene)sulfonamido]ethoxy]ethoxy)ethyl]-1-[4-([[2-(2-[2-[(4-[[(1S,2S)-4,6-dichloro-2-(dimethylamino)-2,3-dihydro-1H-inden-1-yl]oxy]-2-fluoro-5-methylbenzene)sulfonamido]ethoxy]ethoxy)ethyl]carbamoyl]amino)butyl]urea; bis(trifluoroacetic acid)] | C (>70%) | – | C (>70%) | – | C (NHE3 pIC50 > 7) | 100 to 1000 |
| N[C@@H]1CCCN([C@H]2Cc3c(Cl)cc(Cl)cc3[C@@H]2Oc2ccc(S(=O)(=O)NCCCCn3cc(CNC(=O)NCCCCNC(=O)NCc4cn(CCCCNS(=O)(=O)c5ccc(O[C@H]6c7cc(Cl)cc(Cl)c7C[C@@H]6N6CCC[C@@H](N)C6)cc5)nn4)nn3)cc2)C1 [Example 58, 3-[(1-[4-[(4-[[(1S,2S)-2-[(3R)-3-Aminopiperidin-1-yl]-4,6-dichloro-2,3-dihydro-1H-inden-1-yl]oxy]benzene)sulfonamido]butyl]-1H-1,2,3-triazol-4-yl)methyl]-1-[4-([[(1-[4-[(4-[[(1S,2S)-2-[(3R)-3-aminopiperidin-1-yl]-4,6-dichloro-2,3-dihydro-1H-inden-1-yl]oxy]benzene)sulfonamido]butyl]-1H-1,2,3-triazol-4-yl)methyl]carbamoyl]amino)butyl]urea] | C (>70%) | < 100 | C (>70%) | – | – | < 100 |
| N#Cc1cc(Cl)cc2c1C[C@H](N1CCNCC1)[C@H]2Oc1ccc(S(=O)(=O)NC2CCN(C(=O)CCCNC(=O)NCCCC(=O)N3CCC(NS(=O)(=O)c4ccc(O[C@H]5c6cc(Cl)cc(C#N)c6C[C@@H]5N5CCNCC5)cc4)CC3)CC2)cc1 [Example 154, 4-([(1S,2S)-6-Chloro-4-cyano-2-(piperazin-1-yl)-2,3-dihydro-1H-inden-1-yl]oxy)-N-[1-(4-[3-(4-[4-([4-([(1S,2S)-6-chloro-4-cyano-2-(piperazin-1-yl)-2,3-dihydro-1H-inden-1-yl]oxy)phenyl]sulfonamido)piperidin-1-yl]-4-oxobutyl)ureido]butanoyl)piperidin-4-yl]benzenesulfonamide] | C (>70%) | – | C (>70%) | C (NHE3 pIC50 > 7) | C (NHE3 pIC50 > 7) | – |
| Cc1cc(Cl)cc2c1C[C@H](N1CCC[C@@H](N)C1)[C@H]2Oc1ccc(S(=O)(=O)NCCOCCOCCNC(=O)NCCCCNC(=O)NCCOCCOCCNS(=O)(=O)c2ccc(O[C@H]3c4cc(Cl)cc(C)c4C[C@@H]3N3CCC[C@@H](N)C3)cc2)cc1 [Example 3, 3-[2-(2-[2-[(4-[[(1S,2S)-2-[(3R)-3-Aminopiperidin-1-yl]-6-chloro-4-methyl-2,3-dihydro-1H-inden-1-yl]oxy]benzene)sulfonamido]ethoxy]ethoxy)ethyl]-1-[4-([[2-(2-[2-[(4-[[(1S,2S)-2-[(3R)-3-aminopiperidin-1-yl]-6-chloro-4-methyl-2,3-dihydro-1H-inden-1-yl]oxy]benzene)sulfonamido]ethoxy]ethoxy)ethyl]carbamoyl]amino)butyl]urea] | C (>70%) | – | C (>70%) | – | – | – |
| Cc1cc(S(=O)(=O)NCCOCCOCCNC(=O)NCCCCNC(=O)NCCOCCOCCNS(=O)(=O)c2ccc(O[C@H]3c4cc(Cl)cc(C#N)c4C[C@@H]3N(C)C)c(C)c2)ccc1O[C@H]1c2cc(Cl)cc(C#N)c2C[C@@H]1N(C)C [Example 18, 3-[2-(2-[2-[(4-[[(1S,2S)-6-Chloro-4-cyano-2-(dimethylamino)-2,3-dihydro-1H-inden-1-yl]oxy]-3-methylbenzene)sulfonamido]ethoxy]ethoxy)ethyl]-1-[4-([[2-(2-[2-[(4-[[(1S,2S)-6-chloro-4-cyano-2-(dimethylamino)-2,3-dihydro-1H-inden-1-yl]oxy]-3-methylbenzene)sulfonamido]ethoxy]ethoxy)ethyl]carbamoyl]amino)butyl]urea; bis(trifluoroacetic acid)] | B (40-70%) | – | B (40-70%) | C (NHE3 pIC50 > 7) | C (NHE3 pIC50 > 7) | – |
| Cc1cc(S(=O)(=O)N2CC[C@@H](COc3ccnc(CNC(=O)NCCCCNC(=O)NCc4cc(OC[C@@H]5CCN(S(=O)(=O)c6ccc(O[C@H]7c8cc(Cl)cc(C#N)c8C[C@@H]7N(C)C)c(C)c6)C5)ccn4)c3)C2)ccc1O[C@H]1c2cc(Cl)cc(C#N)c2C[C@@H]1N(C)C [Example 51, 3-[(4-[[(3R)-1-[(4-[[(1S,2S)-6-Chloro-4-cyano-2-(dimethylamino)-2,3-dihydro-1H-inden-1-yl]oxy]-3-methylbenzene)sulfonyl]pyrrolidin-3-yl]methoxy]pyridin-2-yl)methyl]-1-[4-([[(4-[[(3R)-1-[(4-[[(1S,2S)-6-chloro-4-cyano-2-(dimethylamino)-2,3-dihydro-1H-inden-1-yl]oxy]-3-methylbenzene)sulfonyl]pyrrolidin-3-yl]methoxy]pyridin-2-yl)methyl]carbamoyl]amino)butyl]urea] | B (40-70%) | – | B (40-70%) | C (NHE3 pIC50 > 7) | C (NHE3 pIC50 > 7) | – |
| CN1CCN([C@H]2Cc3c(Cl)cc(Cl)cc3[C@@H]2Oc2ccc(S(=O)(=O)NCCOCCOCCNC(=O)NCCCCNC(=O)NCCOCCOCCNS(=O)(=O)c3ccc(O[C@H]4c5cc(Cl)cc(Cl)c5C[C@@H]4N4CCN(C)CC4)cc3)cc2)CC1 [Example 72, 3-[2-(2-[2-[(4-[[(1S,2S)-4,6-Dichloro-2-(4-methylpiperazin-1-yl)-2,3-dihydro-1H-inden-1-yl]oxy]benzene)sulfonamido]ethoxy]ethoxy)ethyl]-1-[4-([[2-(2-[2-[(4-[[(1S,2S)-4,6-dichloro-2-(4-methylpiperazin-1-yl)-2,3-dihydro-1H-inden-1-yl]oxy]benzene)sulfonamido]ethoxy]ethoxy)ethyl]carbamoyl]amino)butyl]urea a; bis(trifluoroacetic acid)] | C (>70%) | – | C (>70%) | – | – | 100 to 1000 |
| Cc1cc(S(=O)(=O)N2CC[C@H](COc3ccnc(CNC(=O)NCCCCNC(=O)NCc4cc(OC[C@H]5CCN(S(=O)(=O)c6ccc(O[C@H]7c8cc(Cl)cc(C#N)c8C[C@@H]7N(C)C)c(C)c6)C5)ccn4)c3)C2)ccc1O[C@H]1c2cc(Cl)cc(C#N)c2C[C@@H]1N(C)C [Example 50] | B (40-70%) | – | B (40-70%) | C (NHE3 pIC50 > 7) | C (NHE3 pIC50 > 7) | – |
